Source: patent US8658604B2, “Template-fixed beta-hairpin peptidomimetics with protease inhibitory activity” (Polyphor Ltd, priority 2005, dated 2014)
Where a SMILES comes first, the peptide text is derived from it.

Columns and labels:
[1] = biological target: Trypsin, from human pancreas (Homo sapiens, UniProt P07477); assay: Enzymatic assay, trypsin
[2] = biological target: Chymotrypsin, from human pancreas (Homo sapiens, UniProt P17538); assay: Enzymatic assay, chymotrypsin
[3] = biological target: T1, Elastase from human neutrophils (Homo sapiens, UniProt P08246); assay: Enzymatic assay, elastase; details: for IC50: Elastase IC50; for Elastase at 100 μM %: at 100 μM (stated in cell instead of IC50)
T1 sequence (P08246 30-267): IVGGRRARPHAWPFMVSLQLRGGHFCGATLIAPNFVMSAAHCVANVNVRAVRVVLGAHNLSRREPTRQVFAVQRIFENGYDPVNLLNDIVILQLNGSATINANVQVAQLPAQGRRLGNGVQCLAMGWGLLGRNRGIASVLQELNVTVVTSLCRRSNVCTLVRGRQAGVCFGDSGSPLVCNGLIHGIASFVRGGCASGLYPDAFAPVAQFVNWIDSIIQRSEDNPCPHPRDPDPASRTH

[4] = system: Tryptase, from human lung; assay: Enzymatic assay, tryptase; details: at 100 μM
[5] = biological target: T2, CathepsinG, from human neutrophils (Homo sapiens, UniProt P08311); assay: Enzymatic assay, cathepsin G; details: Cathepsin G IC50
T2 sequence (P08311 21-244): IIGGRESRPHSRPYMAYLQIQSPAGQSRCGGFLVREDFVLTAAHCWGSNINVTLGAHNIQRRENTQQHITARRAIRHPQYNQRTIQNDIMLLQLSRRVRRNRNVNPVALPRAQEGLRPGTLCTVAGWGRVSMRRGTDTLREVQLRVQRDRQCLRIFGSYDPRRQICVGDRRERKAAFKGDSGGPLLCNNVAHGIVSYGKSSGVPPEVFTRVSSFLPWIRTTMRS

Chymase, from human skin = biological target: T3, Chymase, from human skin (Homo sapiens, UniProt P23946); assay: Enzymatic assay, chymase
T3 sequence (P23946 22-247): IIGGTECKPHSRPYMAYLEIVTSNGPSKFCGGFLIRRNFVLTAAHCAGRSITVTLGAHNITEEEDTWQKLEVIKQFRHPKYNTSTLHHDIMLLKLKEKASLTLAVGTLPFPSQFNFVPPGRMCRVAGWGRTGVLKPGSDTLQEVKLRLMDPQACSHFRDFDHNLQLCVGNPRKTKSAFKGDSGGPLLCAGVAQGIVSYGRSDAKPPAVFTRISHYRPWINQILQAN

Chain of Chymotrypsin, from human pancreas (P17538 19-263): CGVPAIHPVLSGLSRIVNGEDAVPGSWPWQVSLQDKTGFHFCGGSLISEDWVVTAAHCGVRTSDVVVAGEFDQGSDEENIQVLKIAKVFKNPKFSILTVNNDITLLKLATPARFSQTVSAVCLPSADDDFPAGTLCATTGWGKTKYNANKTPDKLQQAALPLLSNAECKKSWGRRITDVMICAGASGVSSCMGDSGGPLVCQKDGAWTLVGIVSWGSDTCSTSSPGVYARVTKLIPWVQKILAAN

SMILES	Chymotrypsin at 100 μM % [2]	IC50 [3]	Tryptase At 100 μM % [4]	IC50 [5]	Trypsin at 100 μM % [1]	other results
CCCC[C@@H]1NC(=O)[C@@H]2CCCN2C(=O)[C@H]2CCCN2C(=O)[C@H](Cc2ccc(O)cc2)NC(=O)[C@@H]2CSSC[C@H](NC1=O)C(=O)N[C@@H]([C@@H](C)O)C(=O)N[C@@H](C)C(=O)N[C@@H](CO)C(=O)N[C@@H]([C@@H](C)CC)C(=O)N1CCC[C@H]1C(=O)N1CCC[C@H]1C(=O)N[C@@H](CCC(N)=O)C(=O)N2 [Ex. 179] (HELM PEPTIDE1{[Nle].C.T.A.S.I.P.P.Q.C.Y.[dP].P}$PEPTIDE1,PEPTIDE1,2:R3-10:R3|PEPTIDE1,PEPTIDE1,1:R1-13:R2$$$V2.0)	76.0%	50 nM	0%	–	–	IC50 [1]: > 100000 nM
CC[C@H](C)[C@@H]1NC(=O)[C@@H]2CCCN2C(=O)[C@@H]2CCCN2C(=O)[C@H](CC(=O)O)NC(=O)[C@H](CN)NC(=O)[C@H](CCCCN)NC(=O)[C@H]([C@@H](C)O)NC(=O)[C@@H]2CSSC[C@H](NC1=O)C(=O)N[C@@H](CO)C(=O)N1CCC[C@@H]1C(=O)N1CCC[C@H]1C(=O)N[C@@H](Cc1ccccc1)C(=O)N2 [Ex. 25] (HELM PEPTIDE1{F.C.T.K.[NC[C@H](N[*:1])C(=O)[*:2]].D.P.P.I.C.S.[dP].P}$PEPTIDE1,PEPTIDE1,2:R3-10:R3|PEPTIDE1,PEPTIDE1,1:R1-13:R2$$$V2.0)	–	–	–	102 nM	89.3%	Elastase at 100 μM % [3]: 3.2 at %; Chymase at 100 μM % (Chymase, from human skin): 10.0%
CCCC[C@@H]1NC(=O)[C@@H]2CCCN2C(=O)[C@H]2CCCN2C(=O)[C@H](CO)NC(=O)[C@@H]2CSSC[C@H](NC1=O)C(=O)N[C@@H]([C@@H](C)O)C(=O)N[C@@H](CCCCN)C(=O)N[C@@H](CO)C(=O)N[C@@H](CC(=O)O)C(=O)N1CCC[C@H]1C(=O)N1CCC[C@H]1C(=O)N[C@@H]([C@@H](C)CC)C(=O)N2 [Ex. 10] (HELM PEPTIDE1{[Nle].C.T.K.S.D.P.P.I.C.S.[dP].P}$PEPTIDE1,PEPTIDE1,2:R3-10:R3|PEPTIDE1,PEPTIDE1,1:R1-13:R2$$$V2.0)	–	–	–	75 nM	89.9%	Elastase at 100 μM % [3]: 0.3 at %; Chymase at 100 μM % (Chymase, from human skin): 9.4%
CCCC[C@@H]1NC(=O)[C@H](CC(=O)O)NC(=O)[C@H]2CCCN2C(=O)[C@H](Cc2ccc(O)cc2)NC(=O)[C@@H]2CSSC[C@H](NC1=O)C(=O)N[C@@H]([C@@H](C)O)C(=O)N[C@@H](C)C(=O)N[C@@H](CO)C(=O)N[C@@H]([C@@H](C)CC)C(=O)N1CCC[C@H]1C(=O)N1CCC[C@H]1C(=O)N[C@@H](CCC(N)=O)C(=O)N2 [Ex. 168] (HELM PEPTIDE1{[Nle].C.T.A.S.I.P.P.Q.C.Y.[dP].D}$PEPTIDE1,PEPTIDE1,2:R3-10:R3|PEPTIDE1,PEPTIDE1,1:R1-13:R2$$$V2.0)	72.9%	–	4.6%	–	–	–
CCCC[C@@H]1NC(=O)[C@@H]2CCCN2C(=O)[C@H]2CCCN2C(=O)[C@H](Cc2ccc(O)cc2)NC(=O)[C@@H]2CSSC[C@H](NC1=O)C(=O)N[C@@H]([C@@H](C)O)C(=O)N[C@@H](C)C(=O)N[C@@H](CO)C(=O)N[C@@H](CC1CCCCC1)C(=O)N1CCC[C@H]1C(=O)N1CCC[C@H]1C(=O)N[C@@H](CCC(N)=O)C(=O)N2 [Ex. 82] (HELM PEPTIDE1{[Nle].C.T.A.S.[Cha].P.P.Q.C.Y.[dP].P}$PEPTIDE1,PEPTIDE1,2:R3-10:R3|PEPTIDE1,PEPTIDE1,1:R1-13:R2$$$V2.0)	–	18 nM	–	–	–	IC50 [2]: 72.9 nM; Tryptase at 100 μM % [4]: 44.5%
CC[C@H](C)[C@@H]1NC(=O)[C@@H]2CCCN2C(=O)[C@@H]2CCCN2C(=O)[C@H](CC(=O)O)NC(=O)[C@H](CO)NC(=O)[C@H](CCCCN)NC(=O)[C@H]([C@@H](C)O)NC(=O)[C@@H]2CSSC[C@H](NC1=O)C(=O)N[C@@H](CO)C(=O)N1CCC[C@@H]1C(=O)N1[C@@H](c3ccccc3)CC[C@H]1C(=O)N[C@@H](Cc1ccccc1)C(=O)N2 [Ex. 48] (HELM PEPTIDE1{C.S.[dP].[O=C([C@@H]1CC[C@H](c2ccccc2)N1[*:1])[*:2]].F.C.T.K.S.D.P.P.I}$PEPTIDE1,PEPTIDE1,1:R3-6:R3|PEPTIDE1,PEPTIDE1,1:R1-13:R2$$$V2.0)	3%	> 100000 nM	–	83 nM	93%	–
CCCC[C@@H]1NC(=O)[C@@H]2CCCN2C(=O)[C@H]2CCCN2C(=O)[C@H](Cc2ccccc2)NC(=O)[C@@H]2CSSC[C@H](NC1=O)C(=O)N[C@@H]([C@@H](C)O)C(=O)N[C@@H](C)C(=O)N[C@@H](CO)C(=O)N[C@@H]([C@@H](C)CC)C(=O)N1CCC[C@H]1C(=O)N1CCC[C@H]1C(=O)N[C@@H](CCC(N)=O)C(=O)N2 [Ex. 137] (HELM PEPTIDE1{[Nle].C.T.A.S.I.P.P.Q.C.F.[dP].P}$PEPTIDE1,PEPTIDE1,2:R3-10:R3|PEPTIDE1,PEPTIDE1,1:R1-13:R2$$$V2.0)	68.7%	–	5%	–	–	–
CC[C@H](C)[C@@H]1NC(=O)[C@@H]2CCCN2C(=O)[C@@H]2CCCN2C(=O)[C@H](CC(=O)O)NC(=O)[C@H](CO)NC(=O)[C@H](CCCCN)NC(=O)[C@H]([C@@H](C)O)NC(=O)[C@@H]2CSSC[C@H](NC1=O)C(=O)N[C@@H](CCCNC(=N)N)C(=O)N1CCC[C@@H]1C(=O)N1CCC[C@H]1C(=O)N[C@@H](Cc1ccccc1Cl)C(=O)N2 [Ex. 13] (HELM PEPTIDE1{[O=C([C@H](Cc1ccccc1Cl)N[*:1])[*:2]].C.T.K.S.D.P.P.I.C.R.[dP].P}$PEPTIDE1,PEPTIDE1,2:R3-10:R3|PEPTIDE1,PEPTIDE1,1:R1-13:R2$$$V2.0)	–	–	–	100 nM	95.0%	Elastase at 100 μM % [3]: 8.2 at %; Chymase at 100 μM % (Chymase, from human skin): 19.9%
CCCC[C@@H]1NC(=O)[C@@H]2CCCN2C(=O)[C@H]2CCCN2C(=O)[C@H](Cc2ccc(O)cc2)NC(=O)[C@@H]2CSSC[C@H](NC1=O)C(=O)N[C@@H]([C@@H](C)O)C(=O)N[C@@H](C)C(=O)N[C@@H](CO)C(=O)N[C@@H](C1CCCCC1)C(=O)N1CCC[C@H]1C(=O)N1CCC[C@H]1C(=O)N[C@@H](CCC(N)=O)C(=O)N2 [Ex. 140] (HELM PEPTIDE1{[Nle].C.T.A.S.[O=C([C@@H](N[*:1])C1CCCCC1)[*:2]].P.P.Q.C.Y.[dP].P}$PEPTIDE1,PEPTIDE1,2:R3-10:R3|PEPTIDE1,PEPTIDE1,1:R1-13:R2$$$V2.0)	79.6%	–	4.2%	–	–	–
CC[C@@H](C)[C@H]1NC(=O)[C@H](CO)NC(=O)[C@@H]2CSSC[C@H](NC(=O)[C@H](Cc3ccccc3)NC(=O)[C@@H]3CCCN3C1=O)C(=O)N[C@@H]([C@@H](C)O)C(=O)N[C@@H](CCCCN)C(=O)N[C@@H](CO)C(=O)N[C@@H](CC(=O)O)C(=O)N1CCC[C@H]1C(=O)N1CCC[C@H]1C(=O)N[C@@H]([C@@H](C)CC)C(=O)N2 [Ex. 50] (HELM PEPTIDE1{F.C.T.K.S.D.P.P.I.C.S.[dI].P}$PEPTIDE1,PEPTIDE1,2:R3-10:R3|PEPTIDE1,PEPTIDE1,1:R1-13:R2$$$V2.0)	0%	> 100000 nM	–	89 nM	94%	–
CCCC[C@@H]1NC(=O)[C@H](Cc2ccccc2)NC(=O)[C@H]2CCCN2C(=O)[C@H](Cc2ccc(O)cc2)NC(=O)[C@@H]2CSSC[C@H](NC1=O)C(=O)N[C@@H]([C@@H](C)O)C(=O)N[C@@H](C)C(=O)N[C@@H](CO)C(=O)N[C@@H]([C@@H](C)CC)C(=O)N1CCC[C@H]1C(=O)N1CCC[C@H]1C(=O)N[C@@H](CCC(N)=O)C(=O)N2 [compound 167] (HELM PEPTIDE1{[Nle].C.T.A.S.I.P.P.Q.C.Y.[dP].F}$PEPTIDE1,PEPTIDE1,2:R3-10:R3|PEPTIDE1,PEPTIDE1,1:R1-13:R2$$$V2.0)	60.2%	–	0.2%	–	–	–
CCCC[C@@H]1NC(=O)[C@@H]2CCCN2C(=O)[C@H]2CCCN2C(=O)[C@H](c2ccccc2)NC(=O)[C@@H]2CSSC[C@H](NC1=O)C(=O)N[C@@H]([C@@H](C)O)C(=O)N[C@@H](C)C(=O)N[C@@H](CO)C(=O)N[C@@H]([C@@H](C)CC)C(=O)N1CCC[C@H]1C(=O)N1CCC[C@H]1C(=O)N[C@@H](CCC(N)=O)C(=O)N2 [Ex. 136] (HELM PEPTIDE1{[Nle].C.T.A.S.I.P.P.Q.C.[Phg].[dP].P}$PEPTIDE1,PEPTIDE1,2:R3-10:R3|PEPTIDE1,PEPTIDE1,1:R1-13:R2$$$V2.0)	67.9%	–	0%	–	–	–
